Laboratory results as given in PubChem BioAssay AID248 (DTP/NCI, 2004).
Toxic doses and inconclusive results are not listed. Rule as the data show it: active = T/C of 150% or more; inactive = T/C below 125%.

System: L1210 leukemia ip in BDF1 mice, survival T/C
Assay: NCI In Vivo Anticancer Drug Screen. Data for tumor model L1210 Leukemia (intraperitoneal) in B6D2F1 (BDF1) mice
Details: endpoint: mean survival time, higher = longer survival
Method in brief: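 In this screen, tumor-bearing mice given compound are compared to those given vehicle, and their survival values are reported as a treated-to-control quotient.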

[1] = dose: 100.0 mg/kg/injection, schedule: Q01DX009 (ip), vehicle: Klucel (hydroxypropylcellulose) (HPC)
[2] = dose: 100.0 mg/kg/injection, schedule: Q04DX003 (ip), vehicle: Klucel (hydroxypropylcellulose) (HPC)
[3] = dose: 200.0 mg/kg/injection, schedule: Q01DX009 (ip), vehicle: Klucel (hydroxypropylcellulose) (HPC)
[4] = dose: 200.0 mg/kg/injection, schedule: Q04DX003 (ip), vehicle: Klucel (hydroxypropylcellulose) (HPC)
[5] = dose: 400.0 mg/kg/injection, schedule: Q04DX003 (ip), vehicle: Klucel (hydroxypropylcellulose) (HPC)
[6] = dose: 100.0 mg/kg/injection, schedule: Q01DX009 (ip), vehicle: saline with Tween-80
[7] = dose: 200.0 mg/kg/injection, schedule: Q01DX009 (ip), vehicle: saline with Tween-80

Measured: T/C

O=NN1CCN(c2ccccc2)C1=O
inactive: dose: 18.0 mg/kg/injection, schedule: Q01DX001 (ip), vehicle: carboxymethylcellulose (CMC) 94 % of control | dose: 37.0 mg/kg/injection, schedule: Q01DX001 (ip), vehicle: carboxymethylcellulose (CMC) 96 % of control | dose: 75.0 mg/kg/injection, schedule: Q01DX001 (ip), vehicle: carboxymethylcellulose (CMC) 102 % of control | dose: 100.0 mg/kg/injection, schedule: Q01DX001 (ip), vehicle: carboxymethylcellulose (CMC) 98 % of control | dose: 150.0 mg/kg/injection, schedule: Q01DX001 (ip), vehicle: carboxymethylcellulose (CMC) 98 % of control | dose: 200.0 mg/kg/injection, schedule: Q01DX001 (ip), vehicle: carboxymethylcellulose (CMC) 104 % of control | dose: 250.0 mg/kg/injection, schedule: Q01DX001 (ip), vehicle: carboxymethylcellulose (CMC) 96 % of control | dose: 300.0 mg/kg/injection, schedule: Q01DX001 (ip), vehicle: carboxymethylcellulose (CMC) 105 % of control | dose: 400.0 mg/kg/injection, schedule: Q01DX001 (ip), vehicle: carboxymethylcellulose (CMC) 98 % of control | dose: 500.0 mg/kg/injection, schedule: Q01DX001 (ip), vehicle: carboxymethylcellulose (CMC) 106 % of control | dose: 600.0 mg/kg/injection, schedule: Q01DX001 (ip), vehicle: carboxymethylcellulose (CMC) 91 % of control | dose: 800.0 mg/kg/injection, schedule: Q01DX001 (ip), vehicle: carboxymethylcellulose (CMC) 96 % of control

CCCN(CCC)C(=O)C(=O)OCC
inactive: dose: 6.25 mg/kg/injection, schedule: Q04DX003 (ip), vehicle: saline with Tween-80 102 % of control | dose: 12.5 mg/kg/injection, schedule: Q04DX003 (ip), vehicle: saline with Tween-80 94 % of control | dose: 25.0 mg/kg/injection, schedule: Q04DX003 (ip), vehicle: saline with Tween-80 98 % of control

CNCC(=O)Nc1ccc(NC(=O)CNC)cc1
inactive: dose: 100.0 mg/kg/injection, schedule: Q04DX002 (ip), vehicle: Klucel (hydroxypropylcellulose) (HPC) 96 % of control | dose: 200.0 mg/kg/injection, schedule: Q04DX002 (ip), vehicle: Klucel (hydroxypropylcellulose) (HPC) 104 % of control

COC(=O)c1cccc(O)c1O
inactive: dose: 100.0 mg/kg/injection, schedule: Q01DX005 (ip), vehicle: other 96 % of control | dose: 100.0 mg/kg/injection, schedule: Q01DX009 (ip), vehicle: other 114 % of control | dose: 200.0 mg/kg/injection, schedule: Q01DX005 (ip), vehicle: other 100 % of control | dose: 200.0 mg/kg/injection, schedule: Q01DX009 (ip), vehicle: other 107 % of control | dose: 400.0 mg/kg/injection, schedule: Q01DX005 (ip), vehicle: other 104 % of control | dose: 400.0 mg/kg/injection, schedule: Q01DX009 (ip), vehicle: other 88 % of control

Cn1c2ccccc2c2cc3cnccc3cc21
inactive: dose: 37.5 mg/kg/injection, schedule: Q04DX003 (ip), vehicle: Klucel (hydroxypropylcellulose) (HPC) 102 % of control | dose: 75.0 mg/kg/injection, schedule: Q04DX003 (ip), vehicle: Klucel (hydroxypropylcellulose) (HPC) 105 % of control | dose: 150.0 mg/kg/injection, schedule: Q04DX003 (ip), vehicle: Klucel (hydroxypropylcellulose) (HPC) 106 % of control | dose: 300.0 mg/kg/injection, schedule: Q04DX003 (ip), vehicle: Klucel (hydroxypropylcellulose) (HPC) 111 % of control

CN(C=O)c1ccccc1
inactive: dose: 100.0 mg/kg/injection, schedule: Q04DX002 (ip), vehicle: saline 106 % of control | dose: 200.0 mg/kg/injection, schedule: Q04DX002 (ip), vehicle: saline 102 % of control | dose: 400.0 mg/kg/injection, schedule: Q04DX002 (ip), vehicle: saline 95 % of control

O=C(CBr)c1ccc(F)cc1
inactive: dose: 2.0 mg/kg/injection, schedule: Q01DX015 (ip), vehicle: carboxymethylcellulose (CMC) 93 % of control | dose: 4.0 mg/kg/injection, schedule: Q01DX015 (ip), vehicle: carboxymethylcellulose (CMC) 105 % of control | dose: 5.0 mg/kg/injection, schedule: Q01DX001 (ip), vehicle: saline 97 % of control | dose: 8.0 mg/kg/injection, schedule: Q01DX015 (ip), vehicle: carboxymethylcellulose (CMC) 88 % of control | dose: 10.0 mg/kg/injection, schedule: Q01DX001 (ip), vehicle: saline 100 % of control | dose: 15.0 mg/kg/injection, schedule: Q01DX015 (ip), vehicle: carboxymethylcellulose (CMC) 97 % of control | dose: 20.0 mg/kg/injection, schedule: Q01DX001 (ip), vehicle: saline 92 % of control | dose: 40.0 mg/kg/injection, schedule: Q01DX001 (ip), vehicle: saline 92 % of control | dose: 80.0 mg/kg/injection, schedule: Q01DX001 (ip), vehicle: saline 97 % of control

O=C(Nc1ccc(Cl)cc1)C(Cl)Cl
inactive: [1] 98 % of control | [2] 100 % of control | [3] 98 % of control | [4] 100 % of control | dose: 400.0 mg/kg/injection, schedule: Q01DX009 (ip), vehicle: Klucel (hydroxypropylcellulose) (HPC) 102 % of control | [5] 102 % of control

CCOC(=O)Cn1c(C(F)(F)F)nc2nc(Cl)c(Cl)nc21
inactive: dose: 50.0 mg/kg/injection, schedule: Q01DX009 (ip), vehicle: saline with Tween-80 97 % of control | [6] 108 % of control | [7] 97 % of control

c1ccc(Pc2ccccc2)cc1
inactive: dose: 100.0 mg/kg/injection, schedule: Q01DX001 (ip), vehicle: saline with Tween-80 103 % of control | [6] 93 % of control | dose: 200.0 mg/kg/injection, schedule: Q01DX001 (ip), vehicle: saline with Tween-80 105 % of control | [7] 98 % of control | dose: 400.0 mg/kg/injection, schedule: Q01DX001 (ip), vehicle: saline with Tween-80 104 % of control

COc1ccc(C(=S)N(CC(C)C)c2ccccc2)cc1
inactive: [2] 94 % of control | [4] 95 % of control | [5] 94 % of control

ON=C1CCCCCCC1
inactive: dose: 12.5 mg/kg/injection, schedule: Q04DX002 (ip), vehicle: Klucel (hydroxypropylcellulose) (HPC) 105 % of control | dose: 25.0 mg/kg/injection, schedule: Q04DX002 (ip), vehicle: Klucel (hydroxypropylcellulose) (HPC) 96 % of control | dose: 50.0 mg/kg/injection, schedule: Q04DX002 (ip), vehicle: Klucel (hydroxypropylcellulose) (HPC) 101 % of control

Oc1ccccc1C=Nc1ccccc1S.[Co]
inactive: dose: 100.0 mg/kg/injection, schedule: Q01DX001 (ip), vehicle: other 105 % of control | dose: 200.0 mg/kg/injection, schedule: Q01DX001 (ip), vehicle: other 100 % of control | dose: 400.0 mg/kg/injection, schedule: Q01DX001 (ip), vehicle: other 105 % of control

C[C@]12CC[C@@H]3c4ccc(O)c([N+](=O)[O-])c4CC[C@H]3[C@@H]1CCC2=O
inactive: [1] 97 % of control | [3] 92 % of control

Nc1cc2ccncc2c2sc3ccccc3c12
inactive: dose: 100.0 mg/kg/injection, schedule: Q01DX009 (ip), vehicle: saline 86 % of control | dose: 100.0 mg/kg/injection, schedule: Q04DX003 (ip), vehicle: saline 90 % of control | dose: 200.0 mg/kg/injection, schedule: Q01DX009 (ip), vehicle: saline 91 % of control | dose: 200.0 mg/kg/injection, schedule: Q04DX003 (ip), vehicle: saline 90 % of control | dose: 400.0 mg/kg/injection, schedule: Q01DX009 (ip), vehicle: saline 93 % of control | dose: 400.0 mg/kg/injection, schedule: Q04DX003 (ip), vehicle: saline 90 % of control
